{"source": "patent US8673815B2", "about": "“Herbicidal composition” (Ishihara Sangyo Kaisha, Ltd., priority 2010, dated 2014)", "key": {"[1]": {"test_system": "bermuda grass (Cynodon dactylon (L.) Pers.)", "experiment": "Foliar treatment pot test on bermuda grass, visual growth inhibition rate (Test Example 2)", "format": "in vivo", "conditions": "in Cynodon dactylon, foliar treatment at 5.0 to 7.0-leaf stage, 21st day after treatment, read-out: Growth inhibition rate (%) of bermuda grass, Measured value", "source_text": "When the herbicidal activity in a case where two active ingredients are combined, is larger than the simple sum of the respective herbicidal activities of the two active ingredients (the expected activity), it is called a synergistic effect. The activity expected by the combination of two active ingredients can be calculated as follows (Colby S. R., “Weed”, vol. 15, p. 20-22, 1967). E=α+β-(α×β÷100) where α: growth inhibition rate when treated with x (g/ha) of herbicide X, β: growth inhibition rate when treated with y (g/ha) of herbicide Y, E: growth inhibition rate expected when treated with x (g/ha) of herbicide X and y (g/ha) of herbicide Y. Growth inhibition rate (%)=0 (equivalent to the non-treated area) to 100 (complete kill) Upland field soil was put into a 1/1,000,000 ha pot, and seeds of bermuda grass (Cynodon dactylon (L.) Pers.) were sown. When the bermuda grass reached 5.0 to 7.0-leaf stage, predetermined amounts of water dispersible granules comprising flazasulfuron as an active ingredient (trade name: […]) were diluted with water (corresponding to 1,000 L/ha) containing 0.05 vol % of an agricultural adjuvant (trade name: […]) and applied for foliar treatment by a small sprayer. On the 21st day after treatment, the state of growth of the bermuda grass was visually observed to determine the growth inhibition rate. The growth inhibition rate (%) (measured value) and the growth inhibition rate (%) calculated in the same manner as in Test Example 1 are shown in Table 2."}, "[2]": {"test_system": "crabgrass (Digitaria sanguinalis.)", "experiment": "Foliar treatment pot test on crabgrass, visual growth inhibition rate (Test Example 1)", "format": "in vivo", "conditions": "foliar treatment at 3.8 to 4.0-leaf stage, 28th day after treatment, read-out: Growth inhibition rate (%) of crabgrass, Measured value", "source_text": "When the herbicidal activity in a case where two active ingredients are combined, is larger than the simple sum of the respective herbicidal activities of the two active ingredients (the expected activity), it is called a synergistic effect. The activity expected by the combination of two active ingredients can be calculated as follows (Colby S. […] E=α+β-(α×β÷100) where α: growth inhibition rate when treated with x (g/ha) of herbicide X, β: growth inhibition rate when treated with y (g/ha) of herbicide Y, E: growth inhibition rate expected when treated with x (g/ha) of herbicide X and y (g/ha) of herbicide Y. Upland field soil was put into a 1/1,000,000 ha pot, and seeds of crabgrass (Digitaria sanguinalis.) were sown. When the crabgrass reached 3.8 to 4.0-leaf stage, predetermined amounts of water dispersible granules comprising flazasulfuron as an active ingredient (trade name: […] manufactured by Ishihara Sangyo Kaisha, Ltd.) were diluted with water (corresponding to 300 L/ha) containing 0.1 vol % of an agricultural adjuvant (trade name: […] manufactured by NIHON NOHYAKU CO., LTD.) and applied for foliar treatment by a small sprayer. On the 28th day after treatment, the state of growth of the crabgrass was visually observed to determine the growth inhibition rate in accordance with the following evaluation standard. The growth inhibition rate (%) (measured value) and the growth inhibition rate (%) (calculated value) calculated by the Colby's formula are shown in Table 1. Growth inhibition rate (%)=0 (equivalent to the non-treated area) to 100 (complete kill)"}}, "data": [{"smiles": "COc1cc(OC)nc(NC(=O)NS(=O)(=O)c2ncccc2C(F)(F)F)n1", "note": "[Flazasulfuron, 1-(4,6-dimethoxypyrimidin-2-yl)-3-(3-trifluoromethyl-2-pyridylsulfonyl)urea]", "values": [{"measurement": "inhibition at 10 g/ha", "setting": "[1]", "value": 0, "unit": "%"}, {"measurement": "inhibition at 200 g/ha", "setting": "[1]; dose 200 g/ha", "value": 45, "unit": "%"}, {"measurement": "inhibition at 12.5 g/ha", "setting": "[2]; dose 12.5 g/ha", "value": 87, "unit": "%"}]}, {"smiles": "COc1cc(OC)nc(NC(=O)NS(=O)(=O)c2ncccc2C(=O)N(C)C)n1", "note": "[Nicosulfuron, 2-(4,6-dimethoxypyrimidin-2-ylcarbamoylsulfamoyl)-N,N-dimethylnicotinamide]", "values": [{"measurement": "inhibition at 10 g/ha", "setting": "[1]", "value": 8, "unit": "%"}, {"measurement": "inhibition at 150 g/ha", "setting": "[1]; dose 150 g/ha", "value": 90, "unit": "%"}, {"measurement": "inhibition at 15 g/ha", "setting": "[2]; dose 15 g/ha", "value": 7, "unit": "%"}, {"measurement": "inhibition at 40 g/ha", "setting": "[2]; dose 40 g/ha", "value": 22, "unit": "%"}]}]}
